# Legend:
# [1] = target: T1, hKv1.5 current (IKur, KCN5A) (Homo sapiens, UniProt P22460); test: Whole-cell patch clamp of hKv1.5 current in HEK 293 cells; type: cell-based; details: 30 μM, at +50 mV, n = 5
# T1 construct: expressed in transfected cells
# Method: Whole-cell currents of hKv1.5 and hKv4.3 were recorded in established HEK 293 cell lines stably expressing hKv1.5 (KCN5A) and hKv4.3 (KCND3) and IKACh was determined in isolated rat atrial myocytes as described previously[12][31][32] and in Supplemental Materials. […]
# Effects of acacetin prodrug on cardiac potassium currents
# Whole-cell currents of hKv1.5 and hKv4.3 were recorded in established HEK 293 cell lines stably expressing hKv1.5 (KCN5A) and hKv4.3 (KCND3).1, 2 The cells were cultured in Dulbecco’s modified eagle’s medium (DMEM, Invitrogen, Hong Kong) supplemented with 10% fetal bovine serum and 400 µg/mL G418. Cells on a coverslip were transferred to an open cell chamber (0.5 ml) mounted on the stage of an inverted microscope and superfused with Tyrode’s solution at 2 mL/min. The whole cell patch-clamp technique was used as described previously.1, 2 The whole-cell membrane currents were measured using an EPC-10 amplifier and Pulse software (Heka Elektronik, Lambrecht, Germany). Borosilicate glass electrodes (1.2-mm OD) were pulled with a Brown/Flaming puller (model P-97, Sutter Instrument, Nato, CA) and had resistances of 1.5~2.5 MΩ when filled with the pipette solution. A 3-M KCl agar bridge was used as the reference electrode. The tip potential was zeroed before the patch pipette contacted the cell. […]
# [2] = tested on: experimental AF induced by vagal nerve stimulation and burst atrial pacing; test: Vagal nerve stimulation-induced AF in beagle dogs; type: in vivo; details: for AF duration in animals with effective AF termination: vehicle 30 min
# Method: The anti-AF effect of acacetin prodrug was investigated in AF model (with AF duration of 30 min), which was established in beagle dogs with modified procedure as described previously. After three-repeats of stable AF (30 min), drug treatment was applied on 4th repeat (Fig. 5A). Acacetin prodrug dissolved in 5% glucose was administrated intravenously after 1 min of onset of AF induction. A bolus of one third dosage was infused within 2 min, then two third of the dosage (3, 6, and 12 mg/kg) was continuously infused for 18 min. The AF disappeared within 30 min before stopping bilateral vagal nerve stimulation was considered to be effective termination of AF (Fig. 5B). Blood samples were collected at different time points (5, 10, 20, 30, 45 and 60 min) during the experiment to determine the plasma acacetin concentrations. Figure 5C illustrates the termination rate of AF by different doses of acacetin prodrug. […] In addition, AF induction was repeated at 40 min after discontinuous prodrug infusion. AF was terminated at 25.3 ±1.8 min after re-induction (P < 0.01 vs. vehicle) in these animals (n = 15) with drug treatment, but not in animals treated with 5% glucose vehicle (30 min duration). However, the duration of AF was longer than during the initial drug administration (25.3 ± 1.8 min vs.17.1 ± 1.3 min, P < 0.01).
# Experimental AF was induced by vagal nerve stimulation in beagle dogs with modified procedure as described previously. Briefly, AF was generated by a 10-s burst atrial pacing with a 4-fold diastolic threshold potential (60-ms interval) after 30 s vagal nerve stimulation. If AF persisted for 30 min, it was terminated by stopping vagal nerve stimulation. The stable AF lasting for 30 min was repeated for three times (20 min interval), drug test (vehicle or different doses of acacetin prodrug) was then performed. A shortened duration of AF during the continuous vagal nerve stimulation was considered to be effective termination of AF for drug treatment. […]
# China) were anesthetized with pentobarbital (40 mg/kg, i.v.), supplemented as necessary during the experiment. The animal was kept on an operation table maintained at 37°C, intubated and ventilated with room air. The left femoral vein was cannulated to maintain fluid balance, anesthesia, and test articles. Lead II electrocardiogram (ECG) was continuously monitored with using a digital recording system (RM6240, Chengdu Instruments, China)
# An action potential (MAP) recording- and pacing-catheter (Boston Scientific Ltd) was introduced to the right atrium through right jugular vein, and an electrical pacing catheter was introduced to left ventricle via […] for ventricular pacing (when necessary).
# Bilateral cervical vagal nerves were isolated and bipolar electrodes were placed to stimulate efferent vagal nerves with 15 Hz, 0.2 ms duration voltage step (80-100% threshold) to induce a 50% reduction of heart rate. Ventricular pacing was performed with 2-ms voltage pulses (2.5 Hz, 150% diastolic threshold) when vagal nerves were continuously stimulated. Experimental atrial fibrillation (AF) model is established in beagle dogs with modified procedure as described previously.8-10 Briefly, AF was generated by a 10-s burst atrial pacing with a 4-fold diastolic threshold potential (60 ms interval) after 30 s vagal nerves stimulation. If AF persisted for 30 min, AF was terminated by stopping vagal nerve stimulation. After stable persistent AF lasing for 30 min was repeated for three times (20 min interval), drug test (vehicle or different doses of phosphate sodium salt prodrug of acacetin) was performed. A shortened AF duration during the continuous vagal stimulation was considered to be effective termination of AF. All the biological signals were recorded using the digital recording system (RM6240, Chengdu […]
# Instruments, China). […]
# Sixty ICR mice (male, 30; female, 30) were stratified […]
# hERG channels = target: T2, hERG channels (Homo sapiens, UniProt Q12809); test: hERG current in HEK 293 cells; type: cell-based; details: 30 μM, n = 4, data not shown
# T2 construct: expressed in transfected cells; host or cells: HEK 293
# T2 sequence (Q12809 whole entry): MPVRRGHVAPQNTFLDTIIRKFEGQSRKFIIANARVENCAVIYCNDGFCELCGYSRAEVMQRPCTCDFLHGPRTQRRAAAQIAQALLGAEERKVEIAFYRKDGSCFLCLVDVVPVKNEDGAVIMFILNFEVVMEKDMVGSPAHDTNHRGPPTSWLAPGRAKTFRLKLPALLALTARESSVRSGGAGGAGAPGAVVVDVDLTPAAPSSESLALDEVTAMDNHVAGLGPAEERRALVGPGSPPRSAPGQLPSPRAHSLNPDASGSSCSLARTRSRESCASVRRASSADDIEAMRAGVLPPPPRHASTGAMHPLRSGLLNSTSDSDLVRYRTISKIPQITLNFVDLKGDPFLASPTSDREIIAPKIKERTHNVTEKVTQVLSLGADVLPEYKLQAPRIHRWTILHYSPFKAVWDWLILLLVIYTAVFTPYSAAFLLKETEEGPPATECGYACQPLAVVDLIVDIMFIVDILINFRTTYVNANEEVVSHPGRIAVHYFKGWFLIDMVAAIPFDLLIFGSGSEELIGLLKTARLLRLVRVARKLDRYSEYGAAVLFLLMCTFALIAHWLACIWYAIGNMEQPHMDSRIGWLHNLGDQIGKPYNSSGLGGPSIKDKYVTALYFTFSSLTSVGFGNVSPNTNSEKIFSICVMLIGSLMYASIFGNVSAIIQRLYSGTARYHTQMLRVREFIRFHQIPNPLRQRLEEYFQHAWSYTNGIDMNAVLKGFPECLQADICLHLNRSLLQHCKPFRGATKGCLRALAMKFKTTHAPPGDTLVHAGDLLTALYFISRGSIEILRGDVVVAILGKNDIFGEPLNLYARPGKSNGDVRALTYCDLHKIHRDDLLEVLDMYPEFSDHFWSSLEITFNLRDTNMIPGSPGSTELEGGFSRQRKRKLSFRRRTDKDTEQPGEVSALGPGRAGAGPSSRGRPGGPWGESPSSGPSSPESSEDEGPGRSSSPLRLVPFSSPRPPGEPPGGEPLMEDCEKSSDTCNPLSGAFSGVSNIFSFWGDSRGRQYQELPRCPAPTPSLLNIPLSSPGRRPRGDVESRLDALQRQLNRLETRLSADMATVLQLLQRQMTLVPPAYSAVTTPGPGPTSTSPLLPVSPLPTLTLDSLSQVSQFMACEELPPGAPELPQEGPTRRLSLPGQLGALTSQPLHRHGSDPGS
# T1 sequence (P22460 whole entry): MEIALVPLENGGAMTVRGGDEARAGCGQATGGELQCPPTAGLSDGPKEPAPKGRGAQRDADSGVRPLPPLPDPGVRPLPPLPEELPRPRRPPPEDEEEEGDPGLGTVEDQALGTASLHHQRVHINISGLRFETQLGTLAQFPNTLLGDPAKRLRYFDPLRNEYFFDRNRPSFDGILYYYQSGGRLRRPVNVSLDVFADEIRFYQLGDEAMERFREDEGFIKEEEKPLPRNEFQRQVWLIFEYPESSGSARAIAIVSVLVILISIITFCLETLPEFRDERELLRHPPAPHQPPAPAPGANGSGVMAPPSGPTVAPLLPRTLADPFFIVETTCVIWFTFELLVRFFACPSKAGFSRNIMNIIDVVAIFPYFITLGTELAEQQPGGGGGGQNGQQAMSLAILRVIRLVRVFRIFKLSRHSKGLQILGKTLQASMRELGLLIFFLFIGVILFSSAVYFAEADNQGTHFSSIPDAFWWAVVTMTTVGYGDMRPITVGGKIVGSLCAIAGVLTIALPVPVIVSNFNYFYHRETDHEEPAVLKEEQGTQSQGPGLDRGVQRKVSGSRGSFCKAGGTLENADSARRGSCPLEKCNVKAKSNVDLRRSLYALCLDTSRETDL
structure (smiles),measurement,setting,value
"COc1ccc(-c2cc(=O)c3c(O)cc(OP(=O)([O-])[O-])cc3o2)cc1.[Na+].[Na+] [acacetin prodrug, phosphate sodium salt of acacetin]",inhibition of hKv1.5 current,[1],no significant inhibition
same,termination rate of AF,"[2]; 3 mg/kg i.v. (1/3 bolus in 2 min, 2/3 infused 18 min), 3 of 6 dogs, vehicle 0%",50%
same,termination rate of AF,"[2]; 6 mg/kg i.v. (1/3 bolus in 2 min, 2/3 infused 18 min), 6 of 8 dogs, P < 0.05 vs. vehicle",75%
same,AF duration in animals with effective AF termination,[2]; 6 mg/kg i.v.,17.2 ± 2.3 min
same,termination rate of AF,"[2]; 12 mg/kg i.v. (1/3 bolus in 2 min, 2/3 infused 18 min), 5 of 7 dogs, P < 0.05 vs. vehicle",71.4%
same,AF duration in animals with effective AF termination,[2]; 12 mg/kg i.v.,15.5 ± 2.7 min
same,"AF terminated at, after re-induction","[2]; AF induction repeated at 40 min after discontinuous prodrug infusion, all doses pooled, n = 15, P < 0.01 vs. vehicle (30 min)",25.3 ± 1.8 min
same,duration of AF during the initial drug administration,"[2]; all doses pooled, animals with drug treatment",17.1 ± 1.3 min
same,effect on hERG channels,hERG channels,no such effect

# — publication PMC4861903, “Synthesis of a highly water-soluble acacetin prodrug for treating experimental atrial fibrillation in beagle dogs” (Scientific Reports, 2016)
